Results from patent US10820597B2, “Phytosanitary composition comprising essential oils that potentiate antifungal activity” (BIOFUNGITEK, S. L., priority 2011, dated 2020).
Several values for one entry are separate records, joined by “and”; a condition that tells them apart may be missing. Identical values can stand only once. Like-named read-outs stand apart in the source and are kept apart here.

How the values were obtained:
[1] = system: Botrytis cinerea; assay: Treated tomato leaves infected with B. cinerea, % infection after two weeks; format: in vivo
[2] = system: Penicillium digitatum; assay: Growth of P. digitatum in liquid culture, optical density after 24 h; format: cell-based
[3] = system: Phytophthora infestans; format: in vivo; details: tomato plants
[4] = system: Cercospora beticola; assay: Growth of C. beticola on PDA, colony diameter; format: cell-based
Experimental: Cercospora beticola was cultured on PDA (potato dextrose agar) culture medium buffered to a pH value not exceeding 9.5. […] The % inhibition was calculated with the following formula:
[formula] wherein “colony diameter (control)” is the size of the control colony (without the compounds to be tested) and “colony diameter (x)” is the size of the colony with the substance(s) to be tested. A fixed K2CO3 concentration of 7.24 mM was tested in C. beticola.
The fungus C. beticola was cultured in a similar way to Example 16 with 10 ppm of carvacrol.
The fungus C. beticola was cultured in a similar way to Example 16 with a fixed concentration of K2CO3 (7.24 mM) and carvacrol (10 ppm).

[5] = system: Alternaria alternata; assay: Growth of A. alternata in liquid culture, optical density after 24 h; format: cell-based
[6] = system: Botrytis cinerea; assay: Growth of B. cinerea in PDB liquid culture, optical density after 24 h; format: cell-based
[7] = system: Alternaria alternata; assay: Treated tomato leaves infected with A. alternata, % infection; format: in vivo
[8] = system: Leveillula taurica; format: in vivo
[9] = system: Penicillium digitatum; details: green mold on oranges; cited from earlier work
[10] = carvacrol 308 ppm, listed as carvacrol
[11] = K2CO3 concentration between 3.5 and 5 mM
[12] = thymol 350 ppm, listed as thymol

Cc1ccc(C(C)C)cc1O [Carvacrol, carvacrol]
Inhibition ± SD (%) ([1]; carvacrol 26 ppm): 7.2%
Inhibition ± SD (%) ([1]; carvacrol 31 ppm): 7.4%
Inhibition ± SD (%) ([1]; carvacrol 100 ppm): 16.7%
Inhibition ± SD (%) ([1]; carvacrol 200 ppm): 18.6%
Inhibition ± SD (%) ([1]; carvacrol 308 ppm): 20.8%
Inhibition ± SD (%) [1, 10]: 21%
inhibition at 0.1 ppm ([2]; Penicillium digitatum, 24 h, read-out: Inhibition ± SD (%), carvacrol 0.1 ppm, 24 h OD): 32.3 ± 2.8%
inhibition at 0.31 ppm ([2]; Penicillium digitatum, 24 h, read-out: Inhibition ± SD (%), carvacrol 0.31 ppm, 24 h OD): 34.3 ± 2.8%
inhibition at 1 ppm ([2]; Penicillium digitatum, 24 h, read-out: Inhibition ± SD (%), carvacrol 1 ppm, 24 h OD): 37.9 ± 3%
inhibition at 3.1 ppm ([2]; Penicillium digitatum, 24 h, read-out: Inhibition ± SD (%), carvacrol 3.1 ppm, 24 h OD): 52.6 ± 2.2%
inhibition at 10 ppm ([2]; Penicillium digitatum, 24 h, read-out: Inhibition ± SD (%), carvacrol 10 ppm, 24 h OD): 58%
inhibition at 31 ppm ([2]; Penicillium digitatum, 24 h, read-out: Inhibition ± SD (%), carvacrol 31 ppm, 24 h OD): 86 ± 1.1%
inhibition at 100 ppm ([2]; Penicillium digitatum, 24 h, read-out: Inhibition ± SD (%), carvacrol 100 ppm, 24 h OD): 100%
Inhibition ± SD (%) ([2]; carvacrol 10 ppm, 24 h OD): 57.8 ± 2.1%
Inhibition ± SD (%) ([3]; carvacrol 26 ppm): 3.2 ± 0.8%
Inhibition ± SD (%) ([3]; carvacrol 150 ppm): 17.1 ± 2.3%
Inhibition ± SD (%) ([3]; carvacrol 308 ppm): 35.0 ± 4.8%
Inhibition ± SD (%) [3, 10]: 35%
inhibition at 10 ppm ([4]; Cercospora beticola, carvacrol 10 ppm, read-out: Inhibition ± SD (%)): 17%
inhibition at 0.1 ppm ([5]; Alternaria alternata, read-out: Inhibition ± SD (%), carvacrol 0.1 ppm): 0%
inhibition at 0.31 ppm ([5]; Alternaria alternata, read-out: Inhibition ± SD (%), carvacrol 0.31 ppm): 2 ± 0.3%
inhibition at 1 ppm ([5]; Alternaria alternata, read-out: Inhibition ± SD (%), carvacrol 1 ppm): 3.5 ± 0.8%
inhibition at 3.1 ppm ([5]; Alternaria alternata, read-out: Inhibition ± SD (%), carvacrol 3.1 ppm): 5.8 ± 1.4%
inhibition at 10 ppm ([5]; Alternaria alternata, read-out: Inhibition ± SD (%), carvacrol 10 ppm): 17.7 ± 11%
inhibition at 31 ppm ([5]; Alternaria alternata, read-out: Inhibition ± SD (%), carvacrol 31 ppm): 27%
inhibition at 100 ppm ([5]; Alternaria alternata, read-out: Inhibition ± SD (%), carvacrol 100 ppm): 74.6 ± 8%
Inhibition ± SD (%) ([5]; carvacrol 31 ppm): 27.2 ± 14.0%
inhibition at 0.1 ppm ([6]; Botrytis cinerea, 24 h, read-out: Inhibition ± SD (%), carvacrol 0.1 ppm, 24 h OD): 0%
inhibition at 0.31 ppm ([6]; Botrytis cinerea, 24 h, read-out: Inhibition ± SD (%), carvacrol 0.31 ppm, 24 h OD): 10.5 ± 7.7%
inhibition at 1 ppm ([6]; Botrytis cinerea, 24 h, read-out: Inhibition ± SD (%), carvacrol 1 ppm, 24 h OD): 13.7 ± 4.1%
inhibition at 3.1 ppm ([6]; Botrytis cinerea, 24 h, read-out: Inhibition ± SD (%), carvacrol 3.1 ppm, 24 h OD): 22.4 ± 3.4%
inhibition at 10 ppm ([6]; Botrytis cinerea, 24 h, read-out: Inhibition ± SD (%), carvacrol 10 ppm, 24 h OD): 21%
inhibition at 31 ppm ([6]; Botrytis cinerea, 24 h, read-out: Inhibition ± SD (%), carvacrol 31 ppm, 24 h OD): 51.4 ± 5.5%
inhibition at 100 ppm ([6]; Botrytis cinerea, 24 h, read-out: Inhibition ± SD (%), carvacrol 100 ppm, 24 h OD): 74.4 ± 1.1%
Inhibition ± SD (%) ([6]; carvacrol 10 ppm, 24 h OD): 21.3 ± 5.0%
Inhibition ± SD (%) ([7]; carvacrol 26 ppm): 4.3%
Inhibition ± SD (%) ([7]; carvacrol 31 ppm): 5.8%
Inhibition ± SD (%) ([7]; carvacrol 100 ppm): 11.4%
Inhibition ± SD (%) ([7]; carvacrol 200 ppm): 16.1%
Inhibition ± SD (%) ([7]; carvacrol 308 ppm): 18% and 18.4%

O=C([O-])[O-].[K+].[K+] [K2CO3, potassium carbonate]
Inhibition ± SD (%) ([1]; K2CO3 12 mM): 14% and 13.4%
Inhibition ± SD (%) ([1]; K2CO3 13 mM): 14% and 13.5%
Inhibition ± SD (%) ([1]; K2CO3 14 mM): 13.8%
Inhibition ± SD (%) ([1]; K2CO3 15 mM): 13.8%
Inhibition ± SD (%) ([1]; K2CO3 22 mM): 15.3%
Inhibition ± SD (%) ([2]; K2CO3 3.5 mM, 24 h OD): 29% and 29.1%
Inhibition ± SD (%) ([2]; K2CO3 4.25 mM, 24 h OD): 33.0%
Inhibition ± SD (%) ([2]; K2CO3 4.5 mM, 24 h OD): 36.9%
Inhibition ± SD (%) ([2]; K2CO3 5 mM, 24 h OD): 39.5%
inhibition of the culture [2, 11]: inhibition of the P. digitatum culture was observed
Inhibition ± SD (%) ([3]; K2CO3 15 mM): 19% and 18.5 ± 3.6%
Inhibition ± SD (%) ([4]; K2CO3 7.24 mM): 25%
Inhibition ± SD (%) ([5]; K2CO3 3.5 mM, 24 h OD): 32% and 31.5%
Inhibition ± SD (%) ([5]; K2CO3 4.25 mM, 24 h OD): 39.7%
Inhibition ± SD (%) ([5]; K2CO3 4.5 mM, 24 h OD): 48.0%
Inhibition ± SD (%) ([5]; K2CO3 5 mM, 24 h OD): 59.0%
inhibition of the culture [5, 11]: inhibition of the A. alternata culture was observed
Inhibition ± SD (%) ([8]; K2CO3 15 mM, tomato plants): 14%
Inhibition ± SD (%) ([8]; in vivo): 14% and 13.9 ± 0.5%
Inhibition ± SD (%) ([6]; K2CO3 3.5 mM, 24 h OD): 48% and 48.2%
Inhibition ± SD (%) ([6]; K2CO3 4.25 mM, 24 h OD): 53.3%
Inhibition ± SD (%) ([6]; K2CO3 4.5 mM, 24 h OD): 67.2%
Inhibition ± SD (%) ([6]; K2CO3 5 mM, 24 h OD): 71.0%
inhibition of the culture [6, 11]: inhibition of the B. cinerea culture was observed
Inhibition ± SD (%) ([7]; K2CO3 12 mM): 6.5%
Inhibition ± SD (%) ([7]; K2CO3 13 mM): 7%
Inhibition ± SD (%) ([7]; K2CO3 14 mM): 7.2%
Inhibition ± SD (%) ([7]; K2CO3 15 mM): 7.8%
Inhibition ± SD (%) ([7]; K2CO3 22 mM): 8.6%
fungicide treatment efficacy [9]: effective as fungicide treatment

Cc1ccc(C(C)C)c(O)c1 [Thymol, thymol]
Inhibition ± SD (%) ([1]; thymol 35 ppm): 7.4%
Inhibition ± SD (%) ([1]; thymol 100 ppm): 17.7%
Inhibition ± SD (%) ([1]; thymol 200 ppm): 20.9%
Inhibition ± SD (%) ([1]; thymol 350 ppm): 22.8%
Inhibition ± SD (%) [1, 12]: 23%
inhibition at 0.31 ppm ([2]; Penicillium digitatum, 24 h, thymol 0.31 ppm, 24 h OD, read-out: Inhibition ± SD (%)): 28.2 ± 3.9%
inhibition at 1 ppm ([2]; Penicillium digitatum, 24 h, thymol 1 ppm, 24 h OD, read-out: Inhibition ± SD (%)): 24.2 ± 6%
inhibition at 3.1 ppm ([2]; Penicillium digitatum, 24 h, thymol 3.1 ppm, 24 h OD, read-out: Inhibition ± SD (%)): 36.3 ± 2.3%
inhibition at 10 ppm ([2]; Penicillium digitatum, 24 h, thymol 10 ppm, 24 h OD, read-out: Inhibition ± SD (%)): 36.2 ± 2%
inhibition at 31 ppm ([2]; Penicillium digitatum, 24 h, thymol 31 ppm, 24 h OD, read-out: Inhibition ± SD (%)): 51%
inhibition at 100 ppm ([2]; Penicillium digitatum, 24 h, thymol 100 ppm (first column headed 100), 24 h OD, read-out: Inhibition ± SD (%)): 78.3 ± 2.2%
inhibition at 100 ppm ([2]; Penicillium digitatum, 24 h, thymol 100 ppm (second column headed 100), 24 h OD, read-out: Inhibition ± SD (%)): 95.6 ± 0.5%
Inhibition ± SD (%) ([2]; thymol 31 ppm, 24 h OD): 50.7 ± 2.0%
Inhibition ± SD (%) ([3]; thymol 35 ppm): 4.3 ± 0.7%
Inhibition ± SD (%) ([3]; thymol 150 ppm): 16.2 ± 3.2%
Inhibition ± SD (%) ([3]; thymol 350 ppm): 33.6 ± 5.6%
Inhibition ± SD (%) [3, 12]: 34%
inhibition at 0.31 ppm ([5]; Alternaria alternata, thymol 0.31 ppm, 24 h OD, read-out: Inhibition ± SD (%)): 0%
inhibition at 1 ppm ([5]; Alternaria alternata, thymol 1 ppm, 24 h OD, read-out: Inhibition ± SD (%)): 4.1 ± 2.9%
inhibition at 3.1 ppm ([5]; Alternaria alternata, thymol 3.1 ppm, 24 h OD, read-out: Inhibition ± SD (%)): 10.4 ± 2.6%
inhibition at 10 ppm ([5]; Alternaria alternata, thymol 10 ppm, 24 h OD, read-out: Inhibition ± SD (%)): 16 ± 2%
inhibition at 31 ppm ([5]; Alternaria alternata, thymol 31 ppm, 24 h OD, read-out: Inhibition ± SD (%)): 29%
inhibition at 100 ppm ([5]; Alternaria alternata, thymol 100 ppm, 24 h OD, read-out: Inhibition ± SD (%)): 69.4%
inhibition at 0.31 ppm ([6]; Botrytis cinerea, 24 h, thymol 0.31 ppm, 24 h OD, read-out: Inhibition ± SD (%)): 0%
inhibition at 1 ppm ([6]; Botrytis cinerea, 24 h, thymol 1 ppm, 24 h OD, read-out: Inhibition ± SD (%)): 2.1 ± 2.9%
inhibition at 3.1 ppm ([6]; Botrytis cinerea, 24 h, thymol 3.1 ppm, 24 h OD, read-out: Inhibition ± SD (%)): 10.7 ± 2.3%
inhibition at 10 ppm ([6]; Botrytis cinerea, 24 h, thymol 10 ppm, 24 h OD, read-out: Inhibition ± SD (%)): 13%
inhibition at 31 ppm ([6]; Botrytis cinerea, 24 h, thymol 31 ppm, 24 h OD, read-out: Inhibition ± SD (%)): 32 ± 1.7%
inhibition at 100 ppm ([6]; Botrytis cinerea, 24 h, thymol 100 ppm, 24 h OD, read-out: Inhibition ± SD (%)): 88.2 ± 0.6%
Inhibition ± SD (%) ([6]; thymol 10 ppm, 24 h OD): 12.6 ± 2.4%
Inhibition ± SD (%) ([7]; thymol 35 ppm): 10.0%
Inhibition ± SD (%) ([7]; thymol 100 ppm): 15.2%
Inhibition ± SD (%) ([7]; thymol 200 ppm): 19.3%
Inhibition ± SD (%) ([7]; thymol 350 ppm): 21.3%
Inhibition ± SD (%) [7, 12]: 21%
